Results reported in article PMC4363291 (The Journal of investigative dermatology, 2014).
Structures can show the parent of a compound that is named as a salt.

Columns and labels:
Test in all cases: voltage-clamp of hemichannel currents in Xenopus oocytes
Format in all cases: cell-based
[1] = biological target: connexin26 (Cx26) hemichannel (Homo sapiens, UniProt P29033, A40V)
[2] = biological target: T1, connexin26 (Cx26) hemichannel (Homo sapiens, UniProt P29033, G45E)
[3] = biological target: connexin26 (Cx26) hemichannel (Homo sapiens, UniProt P29033, D50N)
[4] = biological target: connexin26 (Cx26) hemichannel (Homo sapiens, UniProt P29033, D50A)
[5] = biological target: T1, connexin26 (Cx26) hemichannel; remark: listed apart in the source

Row | % [1] | IC50 [2] | % [3] | % [4] | % [5] | Structure (SMILES)
1 | 50% or better suppression at 30µM | ~16 µM | 69±15% reduction at 30µM | 50% or better suppression at 30µM |  | O[C@@H](c1cc(C(F)(F)F)nc2c(C(F)(F)F)cccc12)[C@H]1CCCCN1 (relative stereo) [MFQ, [R*,S*]-[2,8-Bis-trifluoromethyl-quinolin-4-yl]-piperidin-2-yl-methanolhydrochloride]
2 |  |  | 73±11% reduction at 30µM |  | 59±13% reduction at 30µM | OC(c1ccccn1)c1cc(C(F)(F)F)nc2c(C(F)(F)F)cccc12 (stereo not drawn) [QU026, [2,8-Bis-trifluoromethyl-quinolin-4-yl]-pyridin-2-yl-methanol]
